Marks after values point to notes of the source that are not given here.
How the values were obtained:
[1] = intraperitoneal infection, cited from earlier work
S. aureus strain AG461 = conditions: strain AG461 (methicillin-resistant clinical isolate)
Description: The different concentrations of lysostaphin and vancomycin used were one and eight times their respective MIC.

S. aureus [2] = test: MIC by standard broth microdilution; type: cell-based
Description: (§1) Approved Standard M7-A3. Methods for dilution antimicrobial susceptibility tests for bacteria that grow aerobically—Third edition. National Committee for Clinical Laboratory Standards, Villanova, Pa.; National Committee for Clinical Laboratory Standards, 1992. Tentative Guideline M26-T. Methods for determining bactericidal activity of antimicrobial agents. National Committee for Clinical Laboratory Standards, Villanova, Pa.].

S. aureus [3] = test: MIC by broth microdilution with 0.1% BSA in the diluent; type: cell-based
Description: Lysostaphin sticks to plastic materials and can be lost from solution; this can affect its apparent activity. Therefore, some MIC determinations were also performed with additions of 0.1% bovine serum album (BSA) to the diluent. Otherwise, the method was identical to that cited above. […] Since this observation is related to the affinity of lysostaphin for plastic materials, it is to be expected that, in general, staphylococcal strains are more susceptible to lysostaphin than was observed previously.

[4] = test system: Staphylococcus epidermidis; test: MIC against Staphylococcus epidermidis clinical isolates; type: cell-based; conditions: 11 of 13 clinical isolates of S. epidermidis tested
Description: as §1

MRSA 27619 = test: Experimental aortic valve endocarditis in rabbits, MRSA 27619; type: in vivo, S. aureus; conditions: for Mean log10CFU/gram of vegetation / Number of sterile vegetations/total animals treated: three days
Description: Aortic valve endocarditis was established in New Zealand white rabbits weighing approximately 3 kg. Rabbits were anesthetized and the right carotid artery surgically exposed and cannulated with a polyethylene catheter which was advanced into the left ventricle of the heart. After at least 24 h, the rabbits were infected intravenously with 10^6-10^7 cells of a methicillin-resistant S. aureus strain (MRSA 27619). Twenty-four hours later, the animals were randomly assigned to different treatment groups; untreated control (9 rabbits); positive control, vancomycin 30 mg/kg twice daily (15); lysostaphin 5 mg/kg three times daily (11); lysostaphin 5 mg/kg once daily (10); lysostaphin 5 mg/kg once daily+vancomycin 30 mg/kg twice daily (11).
All treatments were intravenous and were carried out for three days. The state of health of the rabbits was assessed at intervals. The rabbits were sacrificed 18 h after the last treatment. Aortic vegetations were removed and weighed and processed to determine the number of viable bacteria, expressed as log,10CFU/gram. The limit of detection is 10^2 CFU/gram (log10CFU/gram=2.0). The mean titers of bacteria per gram were compared by one-way analysis of variance. The Student-Newman-Keuls test was used to adjust for multiple comparisons.
Comparison of the rates of sterilization were made using Fisher's exact test. Statistical significance was defined as a P value of ≦0.05.
Kidney abscesses were also assessed for the presence of staphylococci.

[5] = strain 404 (clinical isolate, methicillin-resistant)
[6] = strain 27287 (clinical isolate, methicillin-resistant)
[7] = strain 27295 (clinical isolate, methicillin-resistant)
[8] = strain 27619 (clinical isolate, methicillin-resistant)

lysostaphin: recombinant lysostaphin enzyme from fermentation of B. sphaericus; majority component lacks the two N-terminal amino acids of the published sequence
survival of treated mice ([1]; single or multiple subcutaneous administrations, total approximately 1 mg/kg): 50%
mice protected ([1]; total dosage of 6 mg/kg): 100%
MIC (lower time-kill concentration stated to be one times MIC) (S. aureus strain AG461): 0.004 µg/mL
minimal inhibitory concentrations (MIC) (S. aureus [2]; clinical isolates of S. aureus (summary of Table 1a)): ≤ 1.0 µg/mL
MIC Without BSA (S. aureus [2]; strain 401 (clinical isolate)): 0.5 µg/mL
MIC (S. aureus [2]; strain 402 (clinical isolate)): 0.5 µg/mL
MIC (S. aureus [2]; [5]): 0.5 µg/mL
MIC Without BSA (S. aureus [2]; [5]): 0.5 µg/mL
MIC (S. aureus [2]; strain 412): 0.25 µg/mL
MIC (S. aureus [2]; strain 414): 0.25 µg/mL
MIC Without BSA (S. aureus [2]; strain 414): 0.25 µg/mL
MIC (S. aureus [2]; strain 450M (clinical isolate, methicillin-resistant)): 0.25 µg/mL
MIC (S. aureus [2]; strain 1573 (clinical isolate, methicillin-resistant)): 0.5 µg/mL
MIC (S. aureus [2]; strain 27222 (clinical isolate, methicillin-resistant)): 0.25 µg/mL
MIC (S. aureus [2]; strain 27286 (clinical isolate, methicillin-resistant)): 0.25 µg/mL
MIC (S. aureus [2]; [6]): 0.25 µg/mL
MIC Without BSA (S. aureus [2]; [6]): 0.25 µg/mL
MIC (S. aureus [2]; [7]): 0.13 µg/mL
MIC Without BSA (S. aureus [2]; [7]): 0.13 µg/mL
MIC (S. aureus [2]; [8]): 0.25 µg/mL
MIC Without BSA (S. aureus [2]; [8]): 0.25 µg/mL
MIC (S. aureus [2]; strain 27619VR (laboratory-derived, intermediate susceptibility to vancomycin)): 0.5 µg/mL
MIC (S. aureus [2]; strain 27621 (clinical isolate, methicillin-resistant)): 0.06 µg/mL
MIC (S. aureus [2]; strain 27622 (clinical isolate, methicillin-resistant)): 0.06 µg/mL
MIC (S. aureus [2]; strain 27698 (clinical isolate, methicillin-resistant)): 0.25 µg/mL
MIC (S. aureus [2]; strain 29293 (clinical isolate, methicillin-resistant)): 0.06 µg/mL
MIC (S. aureus [2]; strain COL (clinical isolate, methicillin-resistant)): 0.13 µg/mL
MIC (S. aureus [2]; strain HP5827 (clinical isolate, methicillin-resistant, VISA)): 0.5 µg/mL
MIC (S. aureus [2]; strain HP5836 (clinical isolate, methicillin-resistant, VISA)): 0.5 µg/mL
MIC With BSA (S. aureus [3]; strain 401 (clinical isolate)): 0.015 µg/mL
MIC With BSA (S. aureus [3]; [5]): 0.008 µg/mL
MIC With BSA (S. aureus [3]; strain 414): 0.03 µg/mL
MIC With BSA (S. aureus [3]; strain 417): 0.03 µg/mL
MIC With BSA (S. aureus [3]; strain 25756 (clinical isolate, methicillin-resistant)): 0.008 µg/mL
MIC With BSA (S. aureus [3]; [6]): 0.03 µg/mL
MIC With BSA (S. aureus [3]; [7]): ≦0.004 μg/ml
MIC With BSA (S. aureus [3]; [8]): 0.008 µg/mL
MIC [4]: ≤ 8 µg/mL
Mean log10CFU/gram of vegetation (MRSA 27619; 5 mg/kg once daily iv): 7.08 log10CFU/gram
Number of sterile vegetations/total animals treated (MRSA 27619; 5 mg/kg once daily iv): 2/10
Mean log10CFU/gram of vegetation (MRSA 27619; 5 mg/kg three times daily iv): 2.26 log10CFU/gram
Number of sterile vegetations/total animals treated (MRSA 27619; 5 mg/kg three times daily iv): 10/11^c
bacterial load in kidney abscesses (MRSA 27619; thrice-daily regimen (5 mg/kg), controls just under 10^8 CFU/gram): ~10^2 CFU/gram of tissue
state of health of the rabbits (MRSA 27619; thrice-daily regimen, early in the treatment cycle): all in good health
